Measured values reported in paper PMC11555401 (2024).

Key:
[1] = tested on: aptamer-Seq.10-Cy5 (csa-DEHP aptamer) (DNA, aptamer) TTCCGGGCATACGTATCGAATGTTGTGAGCCGTGGGCTGC; assay: 1H NMR; conditions: complex formed in deionized water at 4 °C overnight, dialyzed; amino signals shift 1.9 to 2.3 ppm
[2] = tested on: DEHP aptamer-Seq.10 (FAM-labeled) (DNA, aptamer) TTCCGGGCATACGTATCGAATGTTGTGAGCCGTGGGCTGC; assay: graphene oxide fluorescence assay; conditions: 37 °C, 1.5 h incubation; graphene oxide:ssDNA mass ratio 100:1; nonlinear regression

binding [1]: yes
Kd [2]: 70 nM
SMILES: CCCCC(CC)COC(=O)c1ccccc1C(=O)OCC(CC)CCCC (centres unmarked)
